Where a name gives a salt, the structure may show the parent alone. Read-outs that look alike come from different tables or passages of the source. Some results are limits rather than exact numbers.

The values that follow come from patent publication US4460605A, “2-[2'-Hydroxy-3'-(1,1-dimethylpropylamino)-propoxy ]-β-phenylpropiophenone, its physiologically acceptable acid addition salts, and pharmaceutical compositions” (Helopharm W. Petrik & Co., priority 1981, dated 1984).

Data set [1] relates to model arrhythmias. The note with it: cited from earlier work; for dose at which antiarrhythmic effect appeared: dogs, cats and rabbits.
In a further data set the test system is heart rate disorders. The note with it: human medicine; cited from earlier work.
Data set [2] has as its system model arrhythmias. The experiment in a line: Tests with animals having model arrhythmias (known compounds). It counts as in vivo. The note with it: average (1-3 mg/kg) intravenous doses.
The next data set concerns circulation parameters. As to the kind of experiment: Circulation parameters in dogs (method of Hapke and Prigge). Particulars: for Diastolic blood pressure (A. femoralis) / Heart beat rate change / Systolic blood pressure (A. femoralis) / Coronary flow volume / Left ventricular peak pressure / Maximum rate of pressure rise (dp/dt) / Peripheral blood flow volume (A. femoralis): dog.

For data set [3], the system named is CHCl3-adrenalin-model arrhythmia. The experiment in a line: animal or person. It is filed as in vivo, dog. On the procedure:
The antiarrhythmic effect of the compound of formula I was tested in dogs according to the method of Hapke and Prigge, Arzneim.-Forsch. (Drug Res.), loc. cit. A model arrhythmia which was essentially characterized by ventricular extrasystoles at absolute arrhythmia was produced by infusion of chloroform and adrenalin (epinephrine). At the onset of these rhythm disorders the inventive compound was injected intravenously as aqueous solution of the hydrochloride.
. […] (Drug Res.), loc. cit.

The subject of data set [4] is rhythm disorders produced by occlusion of a branch of the coronary vessels. The experiment in a line: Antiarrhythmic effect after oral administration, rhythm disorders by occlusion of a branch of the coronary vessels in dogs. It counts as in vivo, dog. The note with it: 10 mg/kg intragastric. On the procedure:
Again in dogs, the excellent antiarrhythmic effect could be observed after oral administration too. Rhythm disorders were produced by occlusion of a branch of the coronary vessels. The inventive compound was administered intragastrically in the form of the hydrochloride the next day.

A short description of data set [5]: LD50 acute toxicity in dog. The note with it: in vivo, iv; dog i.v.

From the text for circulation parameters: For the test method see H. J. Hapke and E. Prigge, Arzneim.-Forsch.

Regarding `CCCNCC(O)COc1ccccc1C(=O)CCc1ccccc1` (stereo not drawn) [propafenone], the hemodynamic effect result with model arrhythmias [1] (average (1-3 mg/kg) and higher (5 mg/kg) intravenous doses) is “hypotensive, negative inotropic effect and dilates the coronary arteries”. Besides, the results for the “dose at which antiarrhythmic effect appeared” value in the data set on model arrhythmias [1] (intravenous) and in the data set on model arrhythmias [1] (oral) were 1 mg/kg and 2 to 10 mg/kg, respectively. The heart rate result in the data set on model arrhythmias [1] (doses producing an antiarrhythmic effect) was “not substantially affected”. Further, the antiarrhythmic effect result with model arrhythmias [1] (only one of the compounds of German Pat. No. 2 001 431) was “shows an antiarrhythmic effect”. Besides, in the data set with heart rate disorders, the “effect in therapy of heart rate disorders” value was “antiarrhythmic with local anaesthetic, quinidine-like and also β-receptor blocking effect”.
Take `CCCCNCC(O)COc1ccccc1C(=O)CCc1ccccc1` (stereo not drawn) [n-butylamino]: the antiarrhythmic effect entry in the data set with model arrhythmias [2] was “practically no antiarrhythmic effect”.
In the case of `CCC(C)NCC(O)COc1ccccc1C(=O)CCc1ccccc1` (stereo not drawn) [1-methylpropylamino], the antiarrhythmic effect entry in the data set with model arrhythmias [2] is “practically no antiarrhythmic effect”.
On the same count and under the same terms, with `CC(C)(C)NCC(O)COc1ccccc1C(=O)CCc1ccccc1` (stereo not drawn) [tert-butylamino] the entry was “practically no antiarrhythmic effect”.
On to `CCC(C)(C)NCC(O)COc1ccccc1C(=O)CCc1ccccc1` (stereo not drawn) [diprafenone-HCl, 2-[2'-hydroxy-3'-(1,1-dimethylpropylamino)-propoxy]-β-phenylpropiophenone-hydrochloride], for which the “effect on peripheral and coronary circulation” value in the data set on circulation parameters (comparable doses) is “does not have an effect on the peripheral and coronary circulation”. Moreover, in the data set on circulation parameters (0.5 mg/kg i.v.), the “Diastolic blood pressure (A. femoralis)” value is recorded as -16 mm Hg, the “Heart beat rate change” value was -8 min⁻¹ and the “Systolic blood pressure (A. femoralis)” value is reported as -13 mm Hg. Besides, in the data set with circulation parameters (1.0 mg/kg i.v.), the “Diastolic blood pressure (A. femoralis)” value was -24 mm Hg, the “Heart beat rate change” value is -22 min⁻¹ and the “Systolic blood pressure (A. femoralis)” value is given as -17 mm Hg. Also, in the data set on circulation parameters (3.0 mg/kg i.v.), the Coronary flow volume result is listed as “+56%”, the “Diastolic blood pressure (A. femoralis)” value is reported as -39 mm Hg, the “Heart beat rate change” value was -24 min⁻¹ and the “Left ventricular peak pressure” value is -46 mm Hg. Also, in the data set with circulation parameters (3.0 mg/kg i.v.), the “Maximum rate of pressure rise (dp/dt)” value is -30% and the “Systolic blood pressure (A. femoralis)” value is reported as -45 mm Hg. In addition, the heart beat rate result in the data set with circulation parameters (doses of 0.5 mg/kg i.v., contrary to propafenone) is recorded as “reduction of the heart beat rate”. Besides, the “time to full antiarrhythmic effect” value in data set [3] (dogs, 0.05 mg/kg i.v.) was at most 45 s. Further, the “antiarrhythmic effect (sinus rhythm in ECG became normal)” value in data set [3] (dogs, 0.05 mg/kg i.v., all dogs treated) is listed as “fully effective”. In addition, the extrasystoles result in data set [4] (30 minutes after application) is “no extrasystoles could be observed”. Moreover, the extrasystoles entry in data set [4] (for 10 minutes after application) is listed as “observed unchanged”. Further, the ECG result in data set [4] (for the 24 hours observed) is “remained normal”. In data set [5], this compound displayed an LD50 of 10 mg/kg.
In the case of `CCCNCC(O)COc1ccccc1C(=O)CCc1ccccc1` (stereo not drawn) [propafenone-HCl], in the data set on circulation parameters (1.0 mg/kg i.v.), the Coronary flow volume entry is “+14%”, the “Left ventricular peak pressure” value is recorded as -5 mm Hg and the “Peripheral blood flow volume (A. femoralis)” value was “+10%”. In the data set on circulation parameters (3.0 mg/kg i.v.), the Coronary flow volume entry is “+30%”, the “Diastolic blood pressure (A. femoralis)” value was -40 mm Hg, the “Left ventricular peak pressure” value is given as -25 mm Hg and the “Maximum rate of pressure rise (dp/dt)” value is -29%. In the data set on circulation parameters (3.0 mg/kg i.v.), the “Peripheral blood flow volume (A. femoralis)” value was “+36%” and the “Systolic blood pressure (A. femoralis)” value is recorded as -30 mm Hg. Moreover, in the data set with circulation parameters (5.0 mg/kg i.v.), the Coronary flow volume entry is recorded as “+43%”, the “Left ventricular peak pressure” value is -42 mm Hg and the “Maximum rate of pressure rise (dp/dt)” value is reported as -47%. Besides, in the data set with circulation parameters (10.0 mg/kg i.v.), the Coronary flow volume result is “+67%”, the “Diastolic blood pressure (A. femoralis)” value is listed as -60 mm Hg, the “Left ventricular peak pressure” value is listed as -70 mm Hg and the “Maximum rate of pressure rise (dp/dt)” value was -62%. Further, in the data set with circulation parameters (10.0 mg/kg i.v.), the “Systolic blood pressure (A. femoralis)” value is on record as -65 mm Hg.
Consider `CCC(C)(C)NCC(O)COc1ccccc1C(=O)CCc1ccccc1` (stereo not drawn) [diprafenone, 2-[2'-hydroxy-3'-(1,1-dimethylpropylamino)-propoxy]-β-phenylpropiophenone], for which the minimal effective dose in data set [3] (Canis lupus familiaris, intravenous, model arrhythmias, read-out: dose showing an antiarrhythmic effect) amounted to 0.05 mg/kg. For the same compound, the “increase of therapeutic quotient as compared to propafenone” value in data set [3] (dog, in vivo) was 10-20 times.

In general, LD50 refers to the dose expected to kill half of the subjects tested. Low values mean greater toxicity, high ones lower toxicity.
